Assay results taken from patent US10668048B2, “Compounds for inhibiting bacterial growth via phosphatidylglycerol binding” (Wichita State University, priority 2016, dated 2020).
Converted amounts (≈) assume the structure as drawn. Values belong to the molecule of their own block, whether it stands above or below them.

Key:
[1] = Liptin-PG binding in solution (ITC and/or 1H NMR titration); conditions: for binding constant for PG (Ka): in DMF solution, prior research
Procedure: The lipid binding ability of liptins 1-3 (FIG. 2A) have been investigated in solution using isothermal titration calorimetry (ITC) and/or ^1H NMR. Stoichiometry of binding was accomplished with Job plots using ^1H NMR. […] The use of organic solvents allowed the determination of binding motif using ^1H NMR.
Liptins 1b, 1e, 2c, 2d, 3a, 3c in DMF/5% CHCl3; 3e in 50% DMSO, 45% CHCl3, 5% CH3OH.
Liptins 1h and 1i 40% DMSO, 60% CHCl3, 3f in 20% DMSO, 80% CHCl3.

Mycobacterium smegmatis [2] = assay: MBC in cation-adjusted Muller Hinton culture; type: cell-based
Procedure: (§1) Minimum bactericidal concentration (MBC) were determined in cation-adjusted Muller Hinton culture. Standard CLSI protocol for serial dilutions of liptin concentrations were used to determine the MBC, starting at 0.01 OD. Two different experimental cultures were used and each data point measured in triplicate.

Escherichia coli [3] = assay: MBC in cation-adjusted Muller Hinton culture; type: cell-based
Procedure: as §1

Staphylococcus aureus [4] = assay: MBC in cation-adjusted Muller Hinton culture; type: cell-based
Procedure: as §1

Acinetobacter baumannii [5] = assay: MBC in cation-adjusted Muller Hinton culture; type: cell-based
Procedure: as §1

Klebsiella pneumoniae [6] = assay: MBC in cation-adjusted Muller Hinton culture; type: cell-based
Procedure: as §1

MRSA [7] = assay: MBC in cation-adjusted Muller Hinton culture; type: cell-based, Methicillin-resistant S. aureus
Procedure: as §1

MRSA [8] = assay: MIC in cation-adjusted Muller Hinton culture; type: cell-based, Methicillin-resistant S. aureus; conditions: no growth after 24 hours
Procedure: (§2) MICs were determined in cation-adjusted Muller Hinton culture. Standard CLSI protocol for serial dilutions of liptin concentrations were used to determine the MIC, starting at 0.01 OD. Two different experimental cultures were used and each data point measured in triplicate.

MRSA [9] = assay: Live-Dead stain (BacLight SYTO 9 / propidium iodide); type: cell-based, Methicillin-resistant S. aureus; conditions: 90 minutes
Procedure: (§3) Molecular Probes BacLight© kits containing the SYTO 9 green-fluorescent dye and propidium iodide red-fluorescent dye were used to detect live or dead bacteria after ninety minute exposure of bacteria to liptins 1h or 1k. Bacteria in Muller Hinton culture were grown to an OD=0.3, were inoculated with liptins 1h and 1k and after ninety minutes stained with a mixture of the above dyes and affixed to a slide to be examined under a light microscope (40×) to determine the number of live and dead cells (green colored cells considered alive and red-colored cells considered dead). Data was calculated based upon an average of 5 different plate counts from each slide, and is based on a percent of total bacteria counted (live and dead). Control sample contains no liptin.

Pseudomonas aeruginosa = assay: MIC in cation-adjusted Muller Hinton culture; type: cell-based; conditions: no growth after 24 hours
Procedure: as §2

Mycobacterium smegmatis [10] = assay: MIC in cation-adjusted Muller Hinton culture; type: cell-based; conditions: no growth after 24 hours
Procedure: as §2

Escherichia coli [11] = assay: MIC in cation-adjusted Muller Hinton culture; type: cell-based; conditions: no growth after 24 hours
Procedure: as §2

Staphylococcus aureus [12] = assay: MIC in cation-adjusted Muller Hinton culture; type: cell-based; conditions: no growth after 24 hours
Procedure: as §2

Acinetobacter baumannii [13] = assay: MIC in cation-adjusted Muller Hinton culture; type: cell-based; conditions: no growth after 24 hours
Procedure: as §2

Klebsiella pneumoniae [14] = assay: MIC in cation-adjusted Muller Hinton culture; type: cell-based; conditions: no growth after 24 hours
Procedure: as §2

E. coli = assay: BacLight Bacterial Membrane Potential kit, plasma membrane depolarization; type: cell-based; conditions: one half the liptins' MICs; concentration dependent
Procedure: (§4) The Molecular Probes BacLight® Bacterial Membrane Potential kit was used to detect changes in the polarization of the bacterial plasma membrane upon inoculation of bacteria with varying concentrations of liptins 1h or 1k. […] CCCP (carbonyl cyanide 3-chlorophenylhydrazone) is a proton ionophore that destroys plasma membrane potential and as such is a positive control. […] With plasma membrane depolarization the bacterial cell loses its ability to synthesize ATP and proteins. Additionally loss of membrane potential stops the ability for cell replication due to an inability for proper placement of divisome proteins in the plasma membrane. […] Thus, it is possible that the liptin's mechanism of action is a result of their deleterious effect on the functioning of electron transport proteins found in the plasma membrane.

S. aureus = assay: as above; type: cell-based; conditions: one half the liptins' MICs; concentration dependent
Procedure: as §4

Mycobacterium smegmatis [15] = assay: Live-Dead stain (BacLight SYTO 9 / propidium iodide); type: cell-based; conditions: 5 μM, 90 minutes
Procedure: as §3

Escherichia coli [16] = assay: as above; type: cell-based; conditions: 10 μM, 90 minutes
Procedure: as §3

Staphylococcus aureus [17] = assay: as above; type: cell-based; conditions: 5 μM, 90 minutes
Procedure: as §3

Acinetobacter baumannii [18] = assay: as above; type: cell-based; conditions: 5 μM, 90 minutes
Procedure: as §3

Klebsiella pneumoniae [19] = assay: as above; type: cell-based; conditions: 90 minutes
Procedure: as §3

[20] = tested on: Gram-positive and Gram-negative bacteria; assay: Growth curves in BHI culture with liptins 1h-k; type: cell-based; conditions: one inoculation
Procedure: Growth curves in BHI culture were generated (not shown) from liquid shake-flask cultures using absorbance measurements at 600 nm at different concentrations of liptins 1h-k. Uninoculated control flasks were used as blanks. Absorbance values of 0.1 OD unit was considered reasonable threshold for positive growth. The use of the nutrient-rich BHI culture allowed us to measure the effects of the small structural differences in liptins 1h-k on bacterial growth rates over long periods of time. […] Liptin exposure appears to stop bacterial growth, as evidenced by long lag phases, which increase with liptin concentration, and growth rates and maximum cell densities are decreased with liptin treatment.

[21] = tested on: A549 (lung carcinoma epithelial) cells; assay: LDH release cytotoxicity assay; type: cell-based; conditions: near 15 μM
Procedure: (§5) Toxicity Studies of human HeLa (vaginal carcinoma) and A549 (lung carcinoma epithelial) cells with Liptins 1h and 1k.
(§6) Eukaryote cell toxicity was determined using a Pierce LDH assay kit including the Chemical Compound-Mediated Cytotoxicity assay. This kit measures cell death by measuring the amount of lactate dehydrogenase released from cells. Lactate dehydrogenase (LDH) is a cytosolic enzyme present in many different types of cells. When the plasma membrane is damaged, LDH is released into cell culture media. The released LDH can be quantified by a coupled enzymatic reaction. First, LDH catalyzes the conversion of lactate to pyruvate via reduction of NAD+ to NADH. Second, diaphorase uses NADH to reduce a tetrazolium salt (INT) to a red formazan product. Therefore, the level of formazan formation is directly proportional to the amount of released LDH in the medium.

[22] = tested on: human HeLa (vaginal carcinoma) cells; assay: LDH release cytotoxicity assay; type: cell-based; conditions: up to about 15 μM
Procedure: as §5, §6

[23] = Inorganic phosphate anion binding in DMF solution
Description: Liptins 2a-2d (FIG. 2A) have been prepared and characterized, but not published. However, example syntheses of several precursors required for the preparation of liptins 2a-2d, via precursors 7-8, utilizing soluble copper catalyst developed in our laboratory to couple the two aromatic rings and to elaborate the ring structure is based upon our previous experience, as is our methodology to efficiently ureidoalkylate the bis-phenol intermediates (FIG. 5). […] In contrast, inorganic phosphate anion bound more tightly to 2c (Ka=10^3 M^−1), indicating the anion binding unit with […] linking the two phenolic oxygens was a complementary fit for phosphate anion. By adding two additional methylene groups to the bridge linking the two rings [i.e., now (CH2)5, 2d], the size of the pocket better accommodates the PG head group, leading to increased […] with a Ka≈500 M^−1 in DMF. To further increase binding affinity, we changed the 3-hydroxypropane para-substituent into a 2,3-propane diol para-substituent (seen in 8 prepared from 7, FIG. 5). This increased the number of possible interactions between the liptin and the PG glycerol hydroxyls and reduced possible conformational constraints in the binding pocket when only two hydroxyl groups are present. […]

[24] = NMR titrations, DMF/5% CHCl3, 1:1 binding stoichiometry
[25] = ITC or NMR titrations, 40% DMSO, 60% CHCl3
[26] = ITC, DMF/5% CHCl3, 1:1 binding stoichiometry

Ka [1, 24]: 200 M⁻¹
Compound: Cc1ccc2c(c1)CNCCCNCc1cc(C)ccc1OCCCCCO2 [Liptin 1b]

Ka [1, 24]: 250 M⁻¹
Compound: Cc1ccc2c(c1)CNCCCCNCc1cc(C)ccc1OCCCCO2 [Liptin 1e]

Compound: CCCCCCNC(=O)CCc1ccc2c(c1)CNCCCNCc1cc(CCC(=O)NCCCCCC)ccc1OCCCCCO2 [Liptin 1h]
MBC (Mycobacterium smegmatis [2]): 11.5 µM (≈ 7.65 µg/mL)
MBC (Escherichia coli [3]): 9 µM (≈ 5.98 µg/mL)
MBC (Staphylococcus aureus [4]): 11 µM (≈ 7.31 µg/mL)
MBC (Acinetobacter baumannii [5]): 8.5 µM (≈ 5.65 µg/mL)
MBC (Klebsiella pneumoniae [6]): 8.5 µM (≈ 5.65 µg/mL)
MBC (MRSA [7]): 10 µM (≈ 6.65 µg/mL)
MIC (MRSA [8]): 3 µM (≈ 1.99 µg/mL)
Ka [1, 25]: 4600 M⁻¹
Dead (MRSA [9]; 5 μM): 72%
Live (MRSA [9]; 5 μM): 28%
Dead (MRSA [9]; 10 μM): 84%
Live (MRSA [9]; 10 μM): 15%
MIC (Pseudomonas aeruginosa): 9 µM (≈ 5.98 µg/mL)
MIC (Mycobacterium smegmatis [10]): 2.5 µM (≈ 1.66 µg/mL)
MIC (Escherichia coli [11]): 2 µM (≈ 1.33 µg/mL)
MIC (Staphylococcus aureus [12]): 2.5 µM (≈ 1.66 µg/mL)
MIC (Acinetobacter baumannii [13]): 2.5 µM (≈ 1.66 µg/mL)
MIC (Klebsiella pneumoniae [14]): 3 µM (≈ 1.99 µg/mL)
plasma membrane depolarization (red/green fluorescence ratio) (E. coli): large membrane depolarization
plasma membrane depolarization (red/green fluorescence ratio) (S. aureus): large membrane depolarization
Dead (Mycobacterium smegmatis [15]): 93%
Live (Mycobacterium smegmatis [15]): 7%
Dead (Escherichia coli [16]): 75%
Live (Escherichia coli [16]): 35%
Dead (Staphylococcus aureus [17]): 39%
Live (Staphylococcus aureus [17]): 61%
Dead (Acinetobacter baumannii [18]): 88%
Live (Acinetobacter baumannii [18]): 12%
Dead (Klebsiella pneumoniae [19]; 5 μM): 67%
Live (Klebsiella pneumoniae [19]; 5 μM): 33%
Dead (Klebsiella pneumoniae [19]; 10 μM): 100%
Live (Klebsiella pneumoniae [19]; 10 μM): 0%
antibacterial activity from growth curves [20]: most potent
cytotoxicity (LDH release) [21]: over 25%
cell toxicity (LDH release) [22]: large toxicity

MIC (MRSA [8]): 3.5 µM (≈ 2.28 µg/mL)
Ka [1, 25]: 1500 M⁻¹
MIC (Pseudomonas aeruginosa): 12 µM (≈ 7.81 µg/mL)
MIC (Mycobacterium smegmatis [10]): 3 µM (≈ 1.95 µg/mL)
MIC (Escherichia coli [11]): 3 µM (≈ 1.95 µg/mL)
MIC (Staphylococcus aureus [12]): 3 µM (≈ 1.95 µg/mL)
MIC (Acinetobacter baumannii [13]): 3.5 µM (≈ 2.28 µg/mL)
MIC (Klebsiella pneumoniae [14]): 4 µM (≈ 2.6 µg/mL)
Compound: CCCCCCNC(=O)CCc1ccc2c(c1)CNCCCNCc1cc(CCC(=O)NCCCCCC)ccc1OCCCCO2 [Liptin 1i]
MBC (Mycobacterium smegmatis [2]): 10.5 µM (≈ 6.83 µg/mL)
MBC (Escherichia coli [3]): 14 µM (≈ 9.11 µg/mL)
MBC (Staphylococcus aureus [4]): 10.5 µM (≈ 6.83 µg/mL)
MBC (Acinetobacter baumannii [5]): 11.5 µM (≈ 7.49 µg/mL)
MBC (Klebsiella pneumoniae [6]): 12 µM (≈ 7.81 µg/mL)
MBC (MRSA [7]): 11.5 µM (≈ 7.49 µg/mL)

MIC (MRSA [8]): 4.5 µM (≈ 2.99 µg/mL)
MIC (Pseudomonas aeruginosa): 14 µM (≈ 9.31 µg/mL)
MIC (Mycobacterium smegmatis [10]): 3.5 µM (≈ 2.33 µg/mL)
MIC (Escherichia coli [11]): 3.5 µM (≈ 2.33 µg/mL)
MIC (Staphylococcus aureus [12]): 4 µM (≈ 2.66 µg/mL)
MIC (Acinetobacter baumannii [13]): 4 µM (≈ 2.66 µg/mL)
MIC (Klebsiella pneumoniae [14]): 3.5 µM (≈ 2.33 µg/mL)
Compound: CCCCCCNC(=O)CCc1ccc2c(c1)CNCCCCNCc1cc(CCC(=O)NCCCCCC)ccc1OCCCCO2 [Liptin 1j]
MBC (Mycobacterium smegmatis [2]): 12 µM (≈ 7.98 µg/mL)
MBC (Escherichia coli [3]): 15 µM (≈ 9.97 µg/mL)
MBC (Staphylococcus aureus [4]): 15.5 µM (≈ 10.3 µg/mL)
MBC (Acinetobacter baumannii [5]): 12.5 µM (≈ 8.31 µg/mL)
MBC (Klebsiella pneumoniae [6]): 13 µM (≈ 8.64 µg/mL)
MBC (MRSA [7]): 15 µM (≈ 9.97 µg/mL)

binding constant for PG (Ka) [1]: no significant binding
Compound: O=C(NCc1cc(CCCO)cc2c1OCCCCOc1c(cc(CCCO)cc1CNC(=O)Nc1ccccc1)CCC2)Nc1ccccc1 [Liptin 2a]

binding constant for PG (Ka) [1]: no significant binding
Compound: O=C(NCc1cc(CCCO)cc2c1OCCCOc1c(cc(CCCO)cc1CNC(=O)Nc1ccccc1)CCC2)Nc1ccccc1 [Liptin 2b]

Ka for inorganic phosphate anion [23]: 10^3 M^−1
Ka [1, 26]: 420 M⁻¹
Compound: O=C(NCc1cc(CCCO)cc2c1OCOc1c(cc(CCCO)cc1CNC(=O)Nc1ccccc1)CCC2)Nc1ccccc1 [Liptin 2c]

Ka [1, 26]: 2100 M⁻¹
Compound: O=C(NCCOCc1ccccc1)Nc1ccccc1-c1c2nc(c(-c3ccccc3NC(=O)NCCOCc3ccccc3)c3ccc([nH]3)c(-c3ccccc3NC(=O)NCCOCc3ccccc3)c3nc(c(-c4ccccc4NC(=O)NCCOCc4ccccc4)c4ccc1[nH]4)C=C3)C=C2 [Liptin 3a]

Ka [1, 26]: 3700 M⁻¹
Compound: CCOCCOCCOCCNC(=O)Nc1ccccc1-c1c2nc(c(-c3ccccc3NC(=O)NCCOCCOCCOCC)c3ccc([nH]3)c(-c3ccccc3NC(=O)NCCOCCOCCOCC)c3nc(c(-c4ccccc4NC(=O)NCCOCCOCCOCC)c4ccc1[nH]4)C=C3)C=C2 [Liptin 3c]

Ka ([1]; NMR titrations, 20% DMSO, 80% CHCl3): 2800 M⁻¹
Compound: O=C(CNCc1ccccc1)Nc1ccccc1-c1c2nc(c(-c3ccccc3NC(=O)CNCc3ccccc3)c3ccc([nH]3)c(-c3ccccc3NC(=O)CNCc3ccccc3)c3nc(c(-c4ccccc4NC(=O)CNCc4ccccc4)c4ccc1[nH]4)C=C3)C=C2 [Liptin 3f]
